Reference: PMC7418987, “NHD2-15, a novel antagonist of Growth Factor Receptor-Bound Protein-2 (GRB2), inhibits leukemic proliferation” (PLoS ONE, 2020)

What was measured:
Format in all cases: binding
[1] = target: T1, Growth factor receptor-bound protein-2 (GRB2) (Homo sapiens, UniProt P62993); assay: SPR (GRB2 immobilized on CM5 chip); supported by competition ELISA with GST-GRB2 and cellulose nitrate filtration assay
[2] = target: T1, Growth factor receptor-bound protein-2 (GRB2); assay: SPR (GRB2 immobilized on CM5 chip); authors call conditions sub-par; only two non-zero concentrations shown
Source text: SPR (GRB2 immobilized on CM5 chip); authors call conditions sub-par; only two non-zero concentrations shown on Growth factor receptor-bound protein-2 (GRB2) | SPR data of NHD2-107 versus GRB2.

[3] = target: T1, Growth factor receptor-bound protein-2 (GRB2); assay: SPR (GRB2 immobilized on CM5 chip); authors call conditions sub-par for this compound

Kd [3] [µM] | Compound | also measured
 | CC(=O)c1c(C)oc2nc3ccccc3nc12 [NHD2-15] | Kd [1]: 119 ± 2 µM
 | CCOC(=O)c1c(-c2ccccc2)oc2nc3ccccc3nc12 [NHD2-107] | Kd [2]: 3400 ± 100 µM
440 ± 7 | CCOC(=O)c1c(C)oc2nc3ccccc3nc12 [NHD2-114] | 
1000 ± 20 | COC(=O)c1c(C)oc2nc3ccccc3nc12 [NHD2-92] | 
